For four cell lines, relative viability results are on record in the supplement of paper PMC10307832.

Assay in all cases: relative viability (nuclei count vs DMSO), 5 days (fraction); higher = more cells survive
Compound in assay [1]: Cc1ccc2nc(NCCN)c3ncc(C)n3c2c1 + N=C(N)NC(=N)NCCc1ccccc1 [Phenformin] (partner 250 µM)
In a few lines: (§1)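 Medians of duplicate plates are given as relative viability. That measure is the nuclei count in treated wells divided by the count in vehicle wells. Counts were taken on 4× images of lung cancer cell lines in 1536-well plates, 5 days after pin-tool dosing the day after seeding with one drug alone or a fixed anchor-drug dose plus five library-drug doses (not always all listed) in √10 steps.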

Compound in the assay “Salubrinal + Trametinib”: O=C(/C=C/c1ccccc1)NC(NC(=S)Nc1cccc2cccnc12)C(Cl)(Cl)Cl [Salubrinal] + CC(=O)Nc1cccc(-n2c(=O)n(C3CC3)c(=O)c3c(Nc4ccc(I)cc4F)n(C)c(=O)c(C)c32)c1 [Trametinib] (partner 0.02 µM)
In a few lines:
as §1

Compound in the assay “Salubrinal + Pictilisib”: O=C(/C=C/c1ccccc1)NC(NC(=S)Nc1cccc2cccnc12)C(Cl)(Cl)Cl [Salubrinal] + CS(=O)(=O)N1CCN(Cc2cc3nc(-c4cccc5[nH]ncc45)nc(N4CCOCC4)c3s2)CC1 [Pictilisib] (partner 1 µM)
An outline of the steps: as §1

Compound in the assay “Salubrinal + Vorinostat”: O=C(/C=C/c1ccccc1)NC(NC(=S)Nc1cccc2cccnc12)C(Cl)(Cl)Cl [Salubrinal] + O=C(CCCCCCC(=O)Nc1ccccc1)NO [Vorinostat] (partner 1 µM)
An outline of the steps: as §1

On to NCI-H2170, for which the relative viability was 0.402 in assay [1] (first compound 0.04 µM); 0.408 in assay [1] (first compound 0.1265 µM); 0.435 in assay [1] (first compound 0.4 µM); 0.424 in assay [1] (first compound 1.265 µM); 0.446 in assay [1] (first compound 4 µM); 1.1 with Salubrinal + Trametinib (first compound 0.08 µM). For the same cell line, the relative viability with Salubrinal + Trametinib (first compound 0.253 µM) stood at 0.658; with Salubrinal + Trametinib (first compound 0.8 µM) it was 0.979; with Salubrinal + Trametinib (first compound 2.53 µM), 0.941; with Salubrinal + Trametinib (first compound 8 µM) it was 0.925; with Salubrinal + Pictilisib (first compound 0.08 µM), 0.29; with Salubrinal + Pictilisib (first compound 0.253 µM), 0.315. Moreover, the relative viability in the assay with Salubrinal + Pictilisib (first compound 0.8 µM) amounted to 0.335; with Salubrinal + Pictilisib (first compound 2.53 µM), 0.294; with Salubrinal + Pictilisib (first compound 8 µM), 0.271; with Salubrinal + Vorinostat (first compound 0.08 µM), 0.861; with Salubrinal + Vorinostat (first compound 0.253 µM), 0.742; with Salubrinal + Vorinostat (first compound 0.8 µM), 0.923. The relative viability turned out to be 0.956 with Salubrinal + Vorinostat (first compound 2.53 µM) and 0.638 in the assay with Salubrinal + Vorinostat (first compound 8 µM).
Regarding NCI-H1650, the relative viability in assay [1] (first compound 0.04 µM) came out at 0.442; in assay [1] (first compound 0.1265 µM), 0.488; in assay [1] (first compound 0.4 µM), 0.455; in assay [1] (first compound 1.265 µM), 0.414; in assay [1] (first compound 4 µM), 0.464; with Salubrinal + Trametinib (first compound 0.08 µM), 0.691. Further, the relative viability was 0.5 in the assay with Salubrinal + Trametinib (first compound 0.253 µM); 0.592 in the assay with Salubrinal + Trametinib (first compound 0.8 µM); 0.517 with Salubrinal + Trametinib (first compound 2.53 µM); 0.54 with Salubrinal + Trametinib (first compound 8 µM); 0.536 with Salubrinal + Pictilisib (first compound 0.08 µM); 0.491 in the assay with Salubrinal + Pictilisib (first compound 0.253 µM). The relative viability with Salubrinal + Pictilisib (first compound 0.8 µM) is 0.635; in the assay with Salubrinal + Pictilisib (first compound 2.53 µM), 0.581; with Salubrinal + Pictilisib (first compound 8 µM), 0.536; with Salubrinal + Vorinostat (first compound 0.08 µM), 0.76; with Salubrinal + Vorinostat (first compound 0.253 µM) it was 0.592; in the assay with Salubrinal + Vorinostat (first compound 0.8 µM), 0.672. Besides, the relative viability with Salubrinal + Vorinostat (first compound 2.53 µM) was determined as 0.456; with Salubrinal + Vorinostat (first compound 8 µM), 0.648.
As to NCI-H2087, the relative viability in assay [1] (first compound 0.04 µM) amounted to 0.464; in assay [1] (first compound 0.1265 µM), 0.491; in assay [1] (first compound 0.4 µM), 0.423; in assay [1] (first compound 1.265 µM) it was 0.482; in assay [1] (first compound 4 µM), 0.477; with Salubrinal + Trametinib (first compound 0.08 µM), 0.201. Moreover, the relative viability with Salubrinal + Trametinib (first compound 0.253 µM) stood at 0.191; with Salubrinal + Trametinib (first compound 0.8 µM) it was 0.181; with Salubrinal + Trametinib (first compound 2.53 µM) it was 0.186; with Salubrinal + Trametinib (first compound 8 µM), 0.207; in the assay with Salubrinal + Pictilisib (first compound 0.08 µM) it was 0.917; with Salubrinal + Pictilisib (first compound 0.253 µM), 0.892. Further, the relative viability was 1.02 with Salubrinal + Pictilisib (first compound 0.8 µM); 0.853 in the assay with Salubrinal + Pictilisib (first compound 2.53 µM); 0.963 with Salubrinal + Pictilisib (first compound 8 µM); 0.981 with Salubrinal + Vorinostat (first compound 0.08 µM); 0.368 in the assay with Salubrinal + Vorinostat (first compound 0.253 µM); 0.67 with Salubrinal + Vorinostat (first compound 0.8 µM). For the same cell line, the relative viability with Salubrinal + Vorinostat (first compound 2.53 µM) was 0.676; with Salubrinal + Vorinostat (first compound 8 µM), 0.762.
With HCC-366, the relative viability in assay [1] (first compound 0.04 µM) stood at 0.588; in assay [1] (first compound 0.1265 µM) it was 0.609; in assay [1] (first compound 0.4 µM), 0.638; in assay [1] (first compound 1.265 µM) it was 0.606; in assay [1] (first compound 4 µM), 0.537; with Salubrinal + Trametinib (first compound 0.08 µM), 0.509. Besides, the relative viability with Salubrinal + Trametinib (first compound 0.8 µM) worked out at 0.379; with Salubrinal + Trametinib (first compound 2.53 µM) it was 0.306; with Salubrinal + Trametinib (first compound 8 µM), 0.233; with Salubrinal + Pictilisib (first compound 0.08 µM), 0.132; in the assay with Salubrinal + Pictilisib (first compound 0.253 µM), 0.143; in the assay with Salubrinal + Pictilisib (first compound 0.8 µM), 0.121. Moreover, the relative viability with Salubrinal + Pictilisib (first compound 2.53 µM) worked out at 0.151; in the assay with Salubrinal + Pictilisib (first compound 8 µM), 0.179; in the assay with Salubrinal + Vorinostat (first compound 0.08 µM), 0.494; with Salubrinal + Vorinostat (first compound 0.8 µM), 0.443; with Salubrinal + Vorinostat (first compound 2.53 µM), 0.364; with Salubrinal + Vorinostat (first compound 8 µM), 0.345.
